Consider 17 compounds from patent US20260132132A1, “3A,4,5,6-TETRAHYDRO-1 H-PYRAZOLO[3,4-C]PYRIDIN-7(7AH)-ONE DERIVATIVES AS FACTOR XIIA INHIBITORS” (KALVISTA PHARMACEUTICALS LIMITED, priority 2022, published 2026).

In this assay the target is T1, Human Factor XIIa (hFXIIa) (Homo sapiens, UniProt P00748).
T1 construct: purchased Enzyme Research Laboratories
T1 sequence (P00748 373-615 limits assumed): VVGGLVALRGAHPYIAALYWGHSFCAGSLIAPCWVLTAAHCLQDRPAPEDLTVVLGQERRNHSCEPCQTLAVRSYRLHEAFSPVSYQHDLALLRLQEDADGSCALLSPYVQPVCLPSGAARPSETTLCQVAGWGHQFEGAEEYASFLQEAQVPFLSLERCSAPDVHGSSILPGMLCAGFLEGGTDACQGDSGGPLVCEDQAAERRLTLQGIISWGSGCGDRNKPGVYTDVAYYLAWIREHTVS
T1 sequence (P00748 20-372 partner limits assumed): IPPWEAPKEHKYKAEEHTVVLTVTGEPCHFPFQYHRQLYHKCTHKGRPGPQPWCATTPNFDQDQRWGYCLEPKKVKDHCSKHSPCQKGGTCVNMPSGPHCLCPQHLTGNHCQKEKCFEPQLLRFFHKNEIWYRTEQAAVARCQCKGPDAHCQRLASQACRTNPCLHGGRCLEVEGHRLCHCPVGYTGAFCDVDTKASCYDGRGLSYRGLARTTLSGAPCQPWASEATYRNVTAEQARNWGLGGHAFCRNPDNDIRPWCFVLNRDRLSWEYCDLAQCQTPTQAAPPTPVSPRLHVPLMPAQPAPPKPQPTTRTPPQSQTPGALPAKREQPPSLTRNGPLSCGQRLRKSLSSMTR
The assay is described as follows: Determination of Human Factor XIIa (hFXIIa) inhibition, fluorogenic substrate IC50 assay. The assay is classed as biochemical. The settings on record: fluorogenic substrate H-DPro-Phe-Arg-AFC at Km, 25° C., read-out: Human FXIIa IC50. As for the experimental part: Determination of Human Factor XIIa (hFXIIa) inhibition
The Km for the cleavage of the substrate by hFXIIa was determined by standard transformation of the Michaelis-Menten equation, with subsequent inhibition assays performed at substrate Km concentration.

Each structure is given as a SMILES string.

The term IC50 denotes the midpoint of a concentration-inhibition curve. For the compound `O=C(NCC1CC1)c1nn(-c2cccc(Cl)c2)c2c1CCN(c1ccc3c(c1)CN(CC1CCOC1)CC3)C2=O` (centres unmarked) [Example 1116, 1-(3-chlorophenyl)-N-(cyclopropylmethyl)-7-oxo-6-(2-((tetrahydrofuran-3-yl)methyl)-1,2,3,4-tetrahydroisoquinolin-7-yl)-4,5,6,7-tetrahydro-1H-pyrazolo[3,4-c]pyridine-3-carboxamide], the 50% inhibitory concentration (IC50) fell in the range of 300 to 1000 nM. Under `O=C(NCC1CC1)c1nn(-c2cccc(Cl)c2)c2c1CCN(c1ccc3c(c1)CN(CCO)CC3(F)F)C2=O` [Example 1300, 1-(3-chlorophenyl)-N-(cyclopropylmethyl)-6-(4,4-difluoro-2-(2-hydroxyethyl)-1,2,3,4-tetrahydroisoquinolin-7-yl)-7-oxo-4,5,6,7-tetrahydro-1H-pyrazolo[3,4-c]pyridine-3-carboxamide] stands 3000 to 10000 nM.

As for `N#CCN1CCc2ccc(N3CCc4c(C(=O)NCC5CC5)nn(-c5cccc(Cl)c5)c4C3=O)cc2C1` [Example 1100, 1-(3-chlorophenyl)-6-(2-(cyanomethyl)-1,2,3,4-tetrahydroisoquinolin-7-yl)-N-(cyclopropylmethyl)-7-oxo-4,5,6,7-tetrahydro-1H-pyrazolo[3,4-c]pyridine-3-carboxamide], the IC50 was 1000 to 3000 nM. Under `CN1CCc2ccc(N3CCc4c(C(=O)NC5CC6CCC5O6)nn(-c5cccc(Cl)c5)c4C3=O)cc2C1` (centres unmarked) [Example 1075, N-(7-oxabicyclo[2.2.1]heptan-2-yl)-1-(3-chlorophenyl)-6-(2-methyl-1,2,3,4-tetrahydroisoquinolin-7-yl)-7-oxo-4,5,6,7-tetrahydro-1H-pyrazolo[3,4-c]pyridine-3-carboxamide] stands 100 to 300 nM; under `O=C(NCC1CC1)c1nn(-c2cccc(Cl)c2)c2c1CCN(c1ccc3c(c1)CN(Cc1ccn[nH]1)CC3)C2=O` [Example 1104, 6-(2-((1H-pyrazol-5-yl)methyl)-1,2,3,4-tetrahydroisoquinolin-7-yl)-1-(3-chlorophenyl)-N-(cyclopropylmethyl)-7-oxo-4,5,6,7-tetrahydro-1H-pyrazolo[3,4-c]pyridine-3-carboxamide], 300 to 1000 nM. Take `C[C@H](NC(=O)c1nn(-c2cccc(Cl)c2)c2c1CCN(c1ccc3c(c1)C(=O)N(C)CC3)C2=O)c1cccnc1` [Example 1215, (S)-1-(3-chlorophenyl)-6-(2-methyl-1-oxo-1,2,3,4-tetrahydroisoquinolin-7-yl)-7-oxo-N-(1-(pyridin-3-yl)ethyl)-4,5,6,7-tetrahydro-1H-pyrazolo[3,4-c]pyridine-3-carboxamide]: the IC50 was 100 to 300 nM. With `O=C(NCc1cc(C2CC2)[nH]n1)c1nn(-c2cccc(Cl)c2)c2c1CCN(c1ccc3c(c1)C(=O)N(CCO)CC3)C2=O` [Example 1259, 1-(3-chlorophenyl)-N-((5-cyclopropyl-1H-pyrazol-3-yl)methyl)-6-(2-(2-hydroxyethyl)-1-oxo-1,2,3,4-tetrahydroisoquinolin-7-yl)-7-oxo-4,5,6,7-tetrahydro-1H-pyrazolo[3,4-c]pyridine-3-carboxamide] the figure was 100 to 300 nM. Under `CN(C(=O)c1cccc(N2CCc3c(C(=O)NCC4CC4)nn(-c4cccc(Cl)c4)c3C2=O)c1)C1CC1` [Example 1270, 1-(3-chlorophenyl)-6-(3-(cyclopropyl(methyl)carbamoyl)phenyl)-N-(cyclopropylmethyl)-7-oxo-4,5,6,7-tetrahydro-1H-pyrazolo[3,4-c]pyridine-3-carboxamide] stands 10000 to 40000 nM; under `O=C(NCC1CC1)c1nn(-c2cccc(Cl)c2)c2c1CCN(c1ccc3c(c1)CN(CC(F)(F)F)CC3)C2=O` [Example 1071, 1-(3-chlorophenyl)-N-(cyclopropylmethyl)-7-oxo-6-(2-(2,2,2-trifluoroethyl)-1,2,3,4-tetrahydroisoquinolin-7-yl)-4,5,6,7-tetrahydro-1H-pyrazolo[3,4-c]pyridine-3-carboxamide], 1000 to 3000 nM; under `CC(C)(O)CN1CCc2ccc(N3CCc4c(C(=O)NCC5CC5)nn(-c5cccc(Cl)c5)c4C3=O)cc2C1` [Example 1096, 1-(3-chlorophenyl)-N-(cyclopropylmethyl)-6-(2-(2-hydroxy-2-methylpropyl)-1,2,3,4-tetrahydroisoquinolin-7-yl)-7-oxo-4,5,6,7-tetrahydro-1H-pyrazolo[3,4-c]pyridine-3-carboxamide], 300 to 1000 nM. With `Cc1cc(CNC(=O)c2nn(-c3cccc(Cl)c3)c3c2CCN(c2cnc4c(c2)C(=O)N(C)CC4)C3=O)nn1C` [Example 1303, 1-(3-chlorophenyl)-N-((1,5-dimethyl-1H-pyrazol-3-yl)methyl)-6-(6-methyl-5-oxo-5,6,7,8-tetrahydro-1,6-naphthyridin-3-yl)-7-oxo-4,5,6,7-tetrahydro-1H-pyrazolo[3,4-c]pyridine-3-carboxamide] the figure was 300 to 1000 nM; with `CN(C)C(=O)c1cc(N2CCc3c(C(=O)NCC4CC4)nn(-c4cccc(Cl)c4)c3C2=O)ccn1` [Example 1278, 1-(3-chlorophenyl)-N-(cyclopropylmethyl)-6-(2-(dimethylcarbamoyl)pyridin-4-yl)-7-oxo-4,5,6,7-tetrahydro-1H-pyrazolo[3,4-c]pyridine-3-carboxamide], 3000 to 10000 nM; with `O=C(NCC1CC1)c1nn(-c2cccc(Cl)c2)c2c1CCN(c1ccc3c(c1)CN(C1CCCC1O)CC3)C2=O` (centres unmarked) [Example 1119, 1-(3-chlorophenyl)-N-(cyclopropylmethyl)-6-(2-(2-hydroxycyclopentyl)-1,2,3,4-tetrahydroisoquinolin-7-yl)-7-oxo-4,5,6,7-tetrahydro-1H-pyrazolo[3,4-c]pyridine-3-carboxamide], 300 to 1000 nM. As for `COc1ccc(CNC(=O)c2nn(-c3cccc(Cl)c3)c3c2CCN(c2cccc(CN4CCCCC4)c2)C3=O)cn1` [Example 1173, 1-(3-chlorophenyl)-N-((6-methoxypyridin-3-yl)methyl)-7-oxo-6-(3-(piperidin-1-ylmethyl)phenyl)-4,5,6,7-tetrahydro-1H-pyrazolo[3,4-c]pyridine-3-carboxamide], the half-inhibitory concentration (IC50) was 100 to 300 nM.

`O=C(NCc1ccoc1)c1nn(-c2cccc(Cl)c2)c2c1CCN(c1ccc3c(c1)CN(CCO)CC3)C2=O` [Example 1105, 1-(3-chlorophenyl)-N-(furan-3-ylmethyl)-6-(2-(2-hydroxyethyl)-1,2,3,4-tetrahydroisoquinolin-7-yl)-7-oxo-4,5,6,7-tetrahydro-1H-pyrazolo[3,4-c]pyridine-3-carboxamide]: the IC50 was 100 to 300 nM.

For `O=C(NCC1CC1)c1nn(-c2cccc(Cl)c2)c2c1CCN(c1ccc3c(c1)CN(CC1CCCC1)CC3)C2=O` [Example 1102, 1-(3-chlorophenyl)-6-(2-(cyclopentylmethyl)-1,2,3,4-tetrahydroisoquinolin-7-yl)-N-(cyclopropylmethyl)-7-oxo-4,5,6,7-tetrahydro-1H-pyrazolo[3,4-c]pyridine-3-carboxamide], the IC50 was in the range of 300 to 1000 nM. Under `Cc1cc(CNC(=O)c2nn(-c3cccc(Cl)c3)c3c2CCN(c2ccc4c(c2)C(=O)N(C2COC2)CC4)C3=O)nn1C` [Example 1290, 1-(3-chlorophenyl)-N-((1,5-dimethyl-1H-pyrazol-3-yl)methyl)-6-(2-(oxetan-3-yl)-1-oxo-1,2,3,4-tetrahydroisoquinolin-7-yl)-7-oxo-4,5,6,7-tetrahydro-1H-pyrazolo[3,4-c]pyridine-3-carboxamide] stands 100 to 300 nM.
